Columns and labels:
[1] = Long Reaction Time Capacity Test; details: 20 g test
Text: Referring now to FIG. 1, therein is schematically depicted a sulfide scavenger testing system 100 comprising a gas source 2, a flow regulator 4, gas treatment vessel 6, and a sulfide measurement device 8. In one testing embodiment, gas (not shown) is flowed from gas source 2 via gas feed piping 10 into flow regulator 4, which regulates gas flow to gas treatment vessel 6 via regulated gas feed piping 12. The regulated gas flows into gas treatment vessel 6 via a bottom inlet 14 thereof, where it comes into contact with a volume of liquid 16 comprising a sulfide scavenger system (not separately labeled). The gas, having been treated by the liquid, flows out of a top end 18 of gas treatment vessel 6 and flows into sulfide measurement device 8 via treated gas outlet piping 20.
In one embodiment, the gas contained in gas source 2 consists substantially of about 15% H2S, and about 3% CO2, with the remainder being Methane. In one embodiment, gas flow from the flow regulator 4 is controlled such that the gas is flowed into the gas treatment vessel 6 at a flow rate of 100 mL/min. up to 500 mL/min. In one embodiment, a gas sparging device, such as a fine pore frit (not shown), is utilized to better distribute the gas into the scavenger liquid. In one embodiment, the gas treatment vessel 6 contains about 20 g of a liquid H2S scavenger, such as one or more diaminols/diaminacetals in a chemical system as described above. In one aspect, to the extent possible, H2S and/or CO2 are scavenged from the gas by the scavenger and the treated (“sweet”) gas exits top end 18 of treatment vessel 6. In one embodiment, sulfide measurement device 8 monitors the concentration of H2S leaving treatment vessel 6. in the gas phase. In other embodiments (not shown), a CO2 measurement device may be similarly employed to monitor the concentration of CO2 leaving treatment vessel 6 in the gas phase.
In one embodiment, gas is flowed through sulfide scavenger testing system 100 until the outlet H2S concentration reaches a 4,000 ppm target, at which point the test is concluded. This relative time duration before the target is reached is used to compare H2S scavenger capacity given the kinetics of each sulfide scavenger system. The longer the duration, the better the capacity.
In this test, methane containing 15% H2S and 3% CO2 by weight is sparged via a fine pore frit (not shown) at 100 mL/min through a column of 20 g of scavenger solution (See FIG. 1). The fine bubbles produced rise slowly, providing plenty of time, plenty of surface area, and a short path through which the H2S must diffuse to the scavenger in the liquid 16. Detector 8 on the outlet line 20 is used to measure H2S concentration in the exiting gas. The times to first detection (FD), at a threshold of 15 ppm, and to complete breakthrough (BT), at the detector saturation of 4000 ppm (0.4%), are recorded. This test is designed to measure the effective scavenging capacity in applications with long contact times.
Note that the true total capacity of a scavenger with infinite time to react is simply equal to the stoichiometry of the reaction—the moles of H2S consumable per mole of scavenging molecule, which can be calculated. This Long Reaction Time Capacity measurement falls short of that ultimate stoichiometric capacity and so is still reaction rate dependent, just less so than the Short Reaction Time Capacity Test.

[2] = Spent Water Flowability Test; format: physicochemical; parameters: key: Pass: A homogeneous, single-phase solution or thin layer of readily flowable non-sticking liquid constitutes a pass.; Fail: Any solids or thick, sticky insoluble liquid is a fail.; PASS: A homogeneous, single-phase solution or thin layer of readily flowable non-sticking liquid constitutes a pass.; FAIL: Any solids or thick, sticky insoluble liquid is a fail; details: Table 5; glyoxy alkyl diaminol in water and MeOH only
Experimental: In field applications, spent scavenger is disposed of through a wastewater system. Spent scavenger might be soluble in the scavenger system but insoluble in wastewater. If it cannot be disposed of, it is not suitable for use. To ensure wastewater processing runs trouble free, spent scavenger passing the Spent Solids Fouling Test is then added to 39 times its weight in water (2.5%) and examined again for insoluble solids and viscous, sticky liquids that might foul the wastewater system. Any solids or thick, sticky insoluble liquid is a fail. A homogeneous, single-phase solution or thin layer of readily flowable non-sticking liquid constitutes a pass.

[3] = Storage Capacity Loss Test; format: physicochemical; details: for Min to BT / Min to FD: Short Reaction Time Capacity Test, diaminol in water + 10.00 g MeOH, 20 g test
Experimental: This test compares the scavenging capacity after 24 hours of storage of the scavenger system at room temperature to that after 72 hours of storage thereof at room temperature. In one embodiment, a sample of the scavenger system is made fresh and split in two portions. The Short Reaction Time Capacity Test is run on one portion after standing 24 hours on the bench at room temperature. Then the same test is run on the other portion after standing 72 hours on the bench at room temperature. The two measured capacities are compared to see if the product degrades in storage. Importantly, some scavengers lose activity with time due to secondary reactions and re-equilibrations that degrade their active form.
Table 5 compares different alkyl substituents on glyoxy alkyl diaminols. These compounds were prepared by reacting one mole of glyoxal, as a 40% aqueous solution, with 2.1 moles of various primary amines in a sufficient amount of MeOH to keep the product from separating into an aqueous layer and a non-aqueous layer. For each amine substituent: methyl (Me), ethyl (Et), normal-propyl (n-Pr), iso-propyl (i-Pr), and iso-propanol [1-propan-2-ol] (i-PrOH), the presence or absence of alpha branching on that substituent is noted. The weight ratios of the diaminols, water, and MeOH, are listed, along with their equivalent weights (Eq. Wt.) and the total equivalents per 20 g test (Eq/test). To measure the product stability, the Storage Capacity Loss between 24 and 72 hours was determined. As described earlier, a fresh sample of the scavenger system is split in two portions. The Short Reaction Time Capacity Test is run on one portion after standing 24 hours on the bench at room temperature. Then the same test is run on the other portion after standing 72 hours on the bench at room temperature. Both the 24-hr and 72-hr capacities (Min to FD and BT) and molar capacities (Min/Eq FD and BT) are listed in the table with the percent capacity loss for each substituent calculated below it. […] The others lost 34% to 77% of their scavenging capacity in 48 hours (72-24), presumably due to secondary reactions and re-equilibrations that degraded their active form. In this system employing only methanol, all of these compositions failed both the Hot Spray Fouling Test and the Spent Water Flowability Test. Two of them, the iso-propylamine [propan-2-amine] and the iso-propanolamine [1-aminopropan-2-ol] passed the Spent Solids Fouling Test.

[4] = Eq/test Triazine 0.068, GIDAc 0.185, GIDA 0.076
[5] = Triazine 7.50 g + 12.50 g water, GIDAc 13.00 g as GID + 7.00 g MeOH, GIDA 6.68 g as GID, 3.32 g water, 8.00 g MeOH, 2.00 g BuOH
[6] = 72-24 Hrs storage at room temperature
[7] = Sample Age 24 Hrs at room temperature
[8] = Sample Age 72 Hrs at room temperature

CC(C)NC(O)C(O)NC(C)C (stereo not shown) [GIDA, 1,2-bis[(propan-2-yl)amino]ethane-1,2-diol]
Min/Eq BT [1, 4]: 805 Min/Eq
Min/Eq FD [1, 4]: 607 Min/Eq
Min to BT [1, 5]: 61 min
Min to FD [1, 5]: 46 min
Spent Water Flowability [2]: Fail
BT Capacity Loss [3, 6]: −2%
FD Capacity Loss [3, 6]: 0%
Min/Eq BT ([3]; Sample Age 24 Hrs): 528 Min/Eq
Min/Eq FD ([3]; Sample Age 24 Hrs): 409 Min/Eq
Min to BT [3, 7]: 40 min
Min to FD [3, 7]: 31 min
Min/Eq BT ([3]; Sample Age 72 Hrs): 541 Min/Eq
Min/Eq FD ([3]; Sample Age 72 Hrs): 409 Min/Eq
Min to BT [3, 8]: 41 min
Min to FD [3, 8]: 31 min
loss of scavenging capacity (degradation) in storage ([3]; in 48 hours (72-24), room temperature): no degradation
